Assay results from the NIST ThermoML archive (doi:10.1007/s10765-009-0566-6).
± gives the expanded uncertainty stated by the source.

Assay: cn = amount concentration of the nth substance listed, in mol/dm3
Details: 101 kPa, Liquid, Direct current cell with electrodes

CCCCCn1cc[n+](C)c1.[Cl-] [1-methyl-3-pentylimidazolium chloride] + O
molar conductivity (298.15 K, c1 = 0.000693): 0.00871 ± 0.00017 S·m2/mol
molar conductivity (298.15 K, c1 = 0.001453): 0.00866 ± 0.00017 S·m2/mol
molar conductivity (298.15 K, c1 = 0.002097): 0.00863 ± 0.00017 S·m2/mol
molar conductivity (298.15 K, c1 = 0.002732): 0.00862 ± 0.00017 S·m2/mol
molar conductivity (298.15 K, c1 = 0.004637): 0.0086 ± 0.00017 S·m2/mol
molar conductivity (298.15 K, c1 = 0.006272): 0.00858 ± 0.00017 S·m2/mol
molar conductivity (298.15 K, c1 = 0.007754): 0.00852 ± 0.00017 S·m2/mol
molar conductivity (298.15 K, c1 = 0.01023): 0.00841 ± 0.00017 S·m2/mol
molar conductivity (298.15 K, c1 = 0.01283): 0.00832 ± 0.00017 S·m2/mol
molar conductivity (298.15 K, c1 = 0.01775): 0.00817 ± 0.00016 S·m2/mol
molar conductivity (298.15 K, c1 = 0.02186): 0.00804 ± 0.00016 S·m2/mol
molar conductivity (298.15 K, c1 = 0.02704): 0.00793 ± 0.00016 S·m2/mol
molar conductivity (298.15 K, c1 = 0.03205): 0.00783 ± 0.00016 S·m2/mol
molar conductivity (298.15 K, c1 = 0.0368): 0.0078 ± 0.00016 S·m2/mol
molar conductivity (298.15 K, c1 = 0.04132): 0.00772 ± 0.00015 S·m2/mol
molar conductivity (298.15 K, c1 = 0.04635): 0.00763 ± 0.00015 S·m2/mol
molar conductivity (298.15 K, c1 = 0.05182): 0.00752 ± 0.00015 S·m2/mol
molar conductivity (308.15 K, c1 = 0.000752): 0.00993 ± 0.0002 S·m2/mol
molar conductivity (308.15 K, c1 = 0.001643): 0.00975 ± 0.00019 S·m2/mol
molar conductivity (308.15 K, c1 = 0.002686): 0.00964 ± 0.00019 S·m2/mol
molar conductivity (308.15 K, c1 = 0.00347): 0.00956 ± 0.00019 S·m2/mol
molar conductivity (308.15 K, c1 = 0.004191): 0.00959 ± 0.00019 S·m2/mol
molar conductivity (308.15 K, c1 = 0.005081): 0.00953 ± 0.00019 S·m2/mol
molar conductivity (308.15 K, c1 = 0.006215): 0.00945 ± 0.00019 S·m2/mol
molar conductivity (308.15 K, c1 = 0.007646): 0.00937 ± 0.00019 S·m2/mol
molar conductivity (308.15 K, c1 = 0.009172): 0.00927 ± 0.00018 S·m2/mol
molar conductivity (308.15 K, c1 = 0.01102): 0.00917 ± 0.00018 S·m2/mol
molar conductivity (308.15 K, c1 = 0.01269): 0.00912 ± 0.00018 S·m2/mol
molar conductivity (308.15 K, c1 = 0.01447): 0.00906 ± 0.00018 S·m2/mol
molar conductivity (308.15 K, c1 = 0.01625): 0.00902 ± 0.00018 S·m2/mol
molar conductivity (308.15 K, c1 = 0.01799): 0.00895 ± 0.00018 S·m2/mol
molar conductivity (308.15 K, c1 = 0.01986): 0.00889 ± 0.00018 S·m2/mol
molar conductivity (308.15 K, c1 = 0.02253): 0.00881 ± 0.00018 S·m2/mol
molar conductivity (308.15 K, c1 = 0.02549): 0.00873 ± 0.00017 S·m2/mol
molar conductivity (308.15 K, c1 = 0.02884): 0.00863 ± 0.00017 S·m2/mol
molar conductivity (308.15 K, c1 = 0.03245): 0.00856 ± 0.00017 S·m2/mol
molar conductivity (308.15 K, c1 = 0.0363): 0.00846 ± 0.00017 S·m2/mol
molar conductivity (308.15 K, c1 = 0.04073): 0.00837 ± 0.00017 S·m2/mol
molar conductivity (308.15 K, c1 = 0.04603): 0.0082 ± 0.00016 S·m2/mol
molar conductivity (308.15 K, c1 = 0.04936): 0.00814 ± 0.00016 S·m2/mol
molar conductivity (318.15 K, c1 = 0.000273): 0.0115 ± 0.00023 S·m2/mol
molar conductivity (318.15 K, c1 = 0.000592): 0.0114 ± 0.00023 S·m2/mol
molar conductivity (318.15 K, c1 = 0.001207): 0.0112 ± 0.00022 S·m2/mol
molar conductivity (318.15 K, c1 = 0.002002): 0.0111 ± 0.00022 S·m2/mol
molar conductivity (318.15 K, c1 = 0.002757): 0.011 ± 0.00022 S·m2/mol
molar conductivity (318.15 K, c1 = 0.003483): 0.0108 ± 0.00022 S·m2/mol
molar conductivity (318.15 K, c1 = 0.004458): 0.0107 ± 0.00021 S·m2/mol
molar conductivity (318.15 K, c1 = 0.005601): 0.0106 ± 0.00021 S·m2/mol
molar conductivity (318.15 K, c1 = 0.007348): 0.0105 ± 0.00021 S·m2/mol
molar conductivity (318.15 K, c1 = 0.008904): 0.0104 ± 0.00021 S·m2/mol
molar conductivity (318.15 K, c1 = 0.01052): 0.0103 ± 0.00021 S·m2/mol
molar conductivity (318.15 K, c1 = 0.0124): 0.0102 ± 0.0002 S·m2/mol
molar conductivity (318.15 K, c1 = 0.01478): 0.0101 ± 0.0002 S·m2/mol
molar conductivity (318.15 K, c1 = 0.01661): 0.01 ± 0.0002 S·m2/mol
molar conductivity (318.15 K, c1 = 0.0196): 0.00989 ± 0.0002 S·m2/mol
molar conductivity (318.15 K, c1 = 0.02241): 0.00978 ± 0.0002 S·m2/mol
molar conductivity (318.15 K, c1 = 0.02545): 0.00966 ± 0.00019 S·m2/mol
molar conductivity (318.15 K, c1 = 0.02897): 0.00953 ± 0.00019 S·m2/mol
molar conductivity (318.15 K, c1 = 0.03318): 0.00939 ± 0.00019 S·m2/mol
molar conductivity (318.15 K, c1 = 0.03779): 0.00924 ± 0.00018 S·m2/mol
molar conductivity (328.15 K, c1 = 0.000588): 0.0119 ± 0.00024 S·m2/mol
molar conductivity (328.15 K, c1 = 0.001076): 0.0118 ± 0.00023 S·m2/mol
molar conductivity (328.15 K, c1 = 0.001612): 0.0117 ± 0.00023 S·m2/mol
molar conductivity (328.15 K, c1 = 0.002109): 0.0116 ± 0.00023 S·m2/mol
molar conductivity (328.15 K, c1 = 0.002949): 0.0116 ± 0.00023 S·m2/mol
molar conductivity (328.15 K, c1 = 0.003721): 0.0116 ± 0.00023 S·m2/mol
molar conductivity (328.15 K, c1 = 0.004608): 0.0115 ± 0.00023 S·m2/mol
molar conductivity (328.15 K, c1 = 0.005897): 0.0113 ± 0.00023 S·m2/mol
molar conductivity (328.15 K, c1 = 0.007087): 0.0111 ± 0.00022 S·m2/mol
molar conductivity (328.15 K, c1 = 0.008632): 0.011 ± 0.00022 S·m2/mol
molar conductivity (328.15 K, c1 = 0.01034): 0.0108 ± 0.00022 S·m2/mol
molar conductivity (328.15 K, c1 = 0.01229): 0.0106 ± 0.00021 S·m2/mol
molar conductivity (328.15 K, c1 = 0.01539): 0.0105 ± 0.00021 S·m2/mol
molar conductivity (328.15 K, c1 = 0.01788): 0.0104 ± 0.00021 S·m2/mol
molar conductivity (328.15 K, c1 = 0.02011): 0.0103 ± 0.00021 S·m2/mol
molar conductivity (328.15 K, c1 = 0.02273): 0.0101 ± 0.0002 S·m2/mol
